Assay results as given in ChEMBL document CHEMBL3885861, “Open TG-GATES”.

Organism: Rattus norvegicus
Experiment: Open TG-GATES - Regimen: Single
Type: toxicity, organism-based, Sprague-Dawley
Set-up: regimen Single, gender Male, age 6 weeks
Details: in vivo, po, 0 mg/kg, route gavage, dose level Control; for APTT / Bas / Eos / Fbg / Hb / Ht / Lym / MCH / MCHC / MCV / Mono / Neu / PT / Plat / RBC / Ret / WBC: tissue Blood; for KIDNEY_L / KIDNEY_R / KIDNEY_TOTAL: tissue Kidney; for LIVER: tissue Liver; for A/G / ALP / ALT / AST / BUN / CRE / Ca / Cl / DBIL / GLC / IP / K / LDH / Na / PL / RALB / TBIL / TC / TG / TP / gamma-GTP: tissue Plasma

Structure (SMILES): NC1=NC(=O)C(c2ccccc2)O1 (configuration not stated) [PEMOLINE]
- TERMINAL_BW (3 h): 210.7 g
- APTT (3 h): 17.2 s
- Bas (3 h): 0%
- Eos (3 h): 0.8%
- Fbg (3 h): 266 mg/dL
- Hb (3 h): 13.1 g/dL
- Ht (3 h): 38.2%
- Lym (3 h): 78.2%
- MCH (3 h): 21.6 pg
- MCHC (3 h): 34.3%
- MCV (3 h): 62.9 fL
- Mono (3 h): 3.8%
- Neu (3 h): 16.6%
- PT (3 h): 13.4 s
- Plat (3 h): 113.2 x10_4/uL
- RBC (3 h): 609.4 x10_4/ul
- Ret (3 h): 9.5%
- WBC (3 h): 87.4 x10_2/uL
- KIDNEY_L (3 h): 0.9 g
- KIDNEY_R (3 h): 1 g
- KIDNEY_TOTAL (3 h): 1.9 g
- LIVER (3 h): 9.1 g
- A/G (3 h): 1
- ALP (3 h): 1454.8 IU/L
- ALT (3 h): 44.8 IU/L
- AST (3 h): 77 IU/L
- BUN (3 h): 9.8 mg/dL
- CRE (3 h): 0.2 mg/dL
- Ca (3 h): 10.7 mg/dL
- Cl (3 h): 104.2 meq/L
- DBIL (3 h): 0.014 mg/dL
- GLC (3 h): 175.2 mg/dL
- IP (3 h): 8.8 mg/dL
- K (3 h): 4 meq/L
- LDH (3 h): 69.6 IU/L
- Na (3 h): 139.8 meq/L
- PL (3 h): 127 mg/dL
- RALB (3 h): 2.6 g/dL
- TBIL (3 h): 0.044 mg/dL
- TC (3 h): 78 mg/dL
- TG (3 h): 40.4 mg/dL
- TP (3 h): 5.3 g/dL
- gamma-GTP (3 h): 1.2 IU/L
- TERMINAL_BW (6 h): 209.5 g
- APTT (6 h): 17.2 s
- Bas (6 h): 0%
- Eos (6 h): 1%
- Fbg (6 h): 286.2 mg/dL
- Hb (6 h): 13.3 g/dL
- Ht (6 h): 39.1%
- Lym (6 h): 77.6%
- MCH (6 h): 22.4 pg
- MCHC (6 h): 34.1%
- MCV (6 h): 65.9 fL
- Mono (6 h): 3%
- Neu (6 h): 18%
- PT (6 h): 13.2 s
- Plat (6 h): 117 x10_4/uL
- RBC (6 h): 594.6 x10_4/ul
- Ret (6 h): 9.1%
- WBC (6 h): 88.4 x10_2/uL
- KIDNEY_L (6 h): 0.9 g
- KIDNEY_R (6 h): 0.9 g
- KIDNEY_TOTAL (6 h): 1.8 g
- LIVER (6 h): 8.8 g
- A/G (6 h): 1
- ALP (6 h): 1338 IU/L
- ALT (6 h): 41.2 IU/L
- AST (6 h): 72.8 IU/L
- BUN (6 h): 8.2 mg/dL
- CRE (6 h): 0.2 mg/dL
- Ca (6 h): 10.6 mg/dL
- Cl (6 h): 104.4 meq/L
- DBIL (6 h): 0.01 mg/dL
- GLC (6 h): 173.8 mg/dL
- IP (6 h): 9.4 mg/dL
- K (6 h): 3.9 meq/L
- LDH (6 h): 57.6 IU/L
- Na (6 h): 140.4 meq/L
- PL (6 h): 138.6 mg/dL
- RALB (6 h): 2.6 g/dL
- TBIL (6 h): 0.038 mg/dL
- TC (6 h): 84.2 mg/dL
- TG (6 h): 46.8 mg/dL
- TP (6 h): 5.3 g/dL
- gamma-GTP (6 h): 1.2 IU/L
- TERMINAL_BW (9 h): 210.1 g
- APTT (9 h): 17.2 s
- Bas (9 h): 0%
- Eos (9 h): 1%
- Fbg (9 h): 293.8 mg/dL
- Hb (9 h): 12.8 g/dL
- Ht (9 h): 37.5%
- Lym (9 h): 75.4%
- MCH (9 h): 21.5 pg
- MCHC (9 h): 34.2%
- MCV (9 h): 62.8 fL
- Mono (9 h): 3.2%
- Neu (9 h): 20.2%
- PT (9 h): 13.3 s
- Plat (9 h): 127.3 x10_4/uL
- RBC (9 h): 598.8 x10_4/ul
- Ret (9 h): 9.5%
- WBC (9 h): 89 x10_2/uL
- KIDNEY_L (9 h): 0.9 g
- KIDNEY_R (9 h): 0.9 g
- KIDNEY_TOTAL (9 h): 1.7 g
- LIVER (9 h): 8.1 g
- A/G (9 h): 1
- ALP (9 h): 1391.4 IU/L
- ALT (9 h): 41.6 IU/L
- AST (9 h): 74.8 IU/L
- BUN (9 h): 8.2 mg/dL
- CRE (9 h): 0.2 mg/dL
- Ca (9 h): 10.3 mg/dL
- Cl (9 h): 104.4 meq/L
- DBIL (9 h): 0.01 mg/dL
- GLC (9 h): 168.8 mg/dL
- IP (9 h): 10.7 mg/dL
- K (9 h): 3.8 meq/L
- LDH (9 h): 53.8 IU/L
- Na (9 h): 140.8 meq/L
- PL (9 h): 121.6 mg/dL
- RALB (9 h): 2.7 g/dL
- TBIL (9 h): 0.04 mg/dL
- TC (9 h): 74.2 mg/dL
- TG (9 h): 27.6 mg/dL
- TP (9 h): 5.3 g/dL
- gamma-GTP (9 h): 1.6 IU/L
- TERMINAL_BW (24 h): 216.7 g
- APTT (24 h): 17.2 s
- Bas (24 h): 0%
- Eos (24 h): 1%
- Fbg (24 h): 274.6 mg/dL
- Hb (24 h): 12.8 g/dL
- Ht (24 h): 37.7%
- Lym (24 h): 74.2%
- MCH (24 h): 21.8 pg
- MCHC (24 h): 34%
- MCV (24 h): 64.2 fL
- Mono (24 h): 3.8%
- Neu (24 h): 20.4%
- PT (24 h): 13 s
- Plat (24 h): 114.9 x10_4/uL
- RBC (24 h): 588.4 x10_4/ul
- Ret (24 h): 8.8%
- WBC (24 h): 92.6 x10_2/uL
- KIDNEY_L (24 h): 0.9 g
- KIDNEY_R (24 h): 0.9 g
- KIDNEY_TOTAL (24 h): 1.9 g
- LIVER (24 h): 9.9 g
- A/G (24 h): 1
- ALP (24 h): 1629.4 IU/L
- ALT (24 h): 50.4 IU/L
- AST (24 h): 79 IU/L
- BUN (24 h): 15 mg/dL
- CRE (24 h): 0.2 mg/dL
- Ca (24 h): 10.7 mg/dL
- Cl (24 h): 105 meq/L
- DBIL (24 h): 0.018 mg/dL
- GLC (24 h): 174.6 mg/dL
- IP (24 h): 8.2 mg/dL
- K (24 h): 4 meq/L
- LDH (24 h): 58.8 IU/L
- Na (24 h): 141 meq/L
- PL (24 h): 144.6 mg/dL
- RALB (24 h): 2.7 g/dL
- TBIL (24 h): 0.032 mg/dL
- TC (24 h): 82.6 mg/dL
- TG (24 h): 89 mg/dL
- TP (24 h): 5.4 g/dL
- gamma-GTP (24 h): 1 IU/L
